According to publication PMC8198043, “Tetracyclic Thioxanthene Derivatives: Studies on Fluorescence and Antitumor Activity” (Molecules, 2021):

What was measured:
[1] = test system: myeloid leukemia K562 cell line (doxorubicin-sensitive); set-up: method as in PMID 26771595; settings: previous results by the group; cited from earlier work
[2] = test system: myeloid leukemia K562 cell line (doxorubicin-resistant); set-up: method as in PMID 26771595; settings: previous results by the group; cited from earlier work
A375-C5 (melanoma) = experiment: SRB cell growth inhibition assay, A375-C5; format: cell-based, human; settings: for GI50: Homo sapiens, A375-C5, SRB assay, continuous exposure for 48 h, mean ± SD, at least three independent experiments, read-out: Antitumor Activity (GI50) A375-C5; for Selectivity Index A375-C5: ratio of GI50 in non-tumor HPAEpiC cells over GI50 in A375-C5
Experimental: (§1) To evaluate the biological activity of compounds 11–14, three human tumor cell lines (European Collection of Cell Culture, Salisbury, Wiltshire, UK) were used: A375-C5 (melanoma), MCF-7 (breast adenocarcinoma) and NCI-H460 (non-small cell lung cancer). Cells were grown in RPMI-1640 culture medium (Biochrom, Berlin, Germany) supplemented with 5% heat-inactivated fetal bovine serum (FBS, Biochrom) and maintained in a humidified incubator at 37 °C with 5% CO2 (Hera Cell, Heraeus).
(§2) The antitumor activity of compounds was accessed through the determination of the GI50 by the sulforhodamine B assay (SRB, Sigma-Aldrich). Tumor cells were seeded in 96-well plates (0.05 × 10^6 cells/well) in complete culture medium and incubated at 37 °C for 24 h, allowing cell attachment. Cells were then incubated with two-fold serial dilutions of the test compounds, with concentrations ranging from 0 to 75 μM. Dimethyl sulfoxide-treated cells (DMSO), up to 0.25% concentration, were included as compounds solvent control. Forty-eight hours later, cells were fixed with 50% (m/v) trichloroacetic acid (Merck Millipore, Darmstadt, Germany), washed with distilled water and stained with SRB for 30 min at room temperature. The SRB-stained cells were washed 5 times with 1% (v/v) acetic acid (Merck Millipore) and afterwards dried at RT; SRB complexes were solubilized by adding 10 mM Tris-Base buffer (Sigma-Aldrich) for 30 min. Absorbance was measured at 515 nm in a microplate reader (BioTek Synergy 2, BioTek Instruments Inc., Winooski, VT, USA).The concentration that caused cell growth inhibition of 50% (GI50) was determined based on a dose–response curve obtained for each cell line with each test compound.

[3] = test system: MCF-7 (breast adenocarcinoma); experiment: SRB cell growth inhibition assay, MCF-7; format: cell-based, human; settings: for GI50: Homo sapiens, MCF7, SRB assay, continuous exposure for 48 h, mean ± SD, at least three independent experiments, read-out: Antitumor Activity (GI50) MCF-7; for Selectivity Index MCF-7: ratio of GI50 in non-tumor HPAEpiC cells over GI50 in MCF-7
Experimental: as §1, §2

[4] = test system: NCI-H460 (non-small cell lung cancer); experiment: SRB cell growth inhibition assay, NCI-H460; format: cell-based, human; settings: for GI50: Homo sapiens, NCI-H460, SRB assay, continuous exposure for 48 h, mean ± SD, at least three independent experiments, read-out: Antitumor Activity (GI50) NCI-H460; for Selectivity Index NCI-H460: ratio of GI50 in non-tumor HPAEpiC cells over GI50 in NCI-H460
Experimental: as §1, §2

[5] = test system: Human Pulmonary Alveolar Epithelial Cells (HPAEpiC); experiment: Cell toxicity in non-tumor cells (GI50); format: cell-based; settings: mean ± SD of three independent experiments
Experimental: as §2
The non-tumor Human Pulmonary Alveolar Epithelial Cells (HPAEpiC) were used to assess the degree of selectivity of the compounds, as the ratio of GI50 in non-tumor cells over GI50 in cancer cells. A selectivity index value less than 2.0 indicates the general toxicity of the compound [32].

[6] = test system: A375-C5, MCF-7 and NCI-H460; experiment: SRB cell growth inhibition, span over the three tumor cell lines; format: cell-based; settings: Homo sapiens; A375-C5, MCF-7 and NCI-H460 taken together; read-out: GI50, range over the tested cell lines
Experimental: as §1
The antitumor activity of compounds was accessed through the determination of the GI50 by the sulforhodamine B assay (SRB, Sigma-Aldrich). Tumor cells were seeded in 96-well plates (0.05 × 10^6 cells/well) in complete culture medium and incubated at 37 °C for 24 h, allowing cell attachment. Cells were then incubated with two-fold serial dilutions of the test compounds, with concentrations ranging from 0 to 75 μM. Dimethyl sulfoxide-treated cells (DMSO), up to 0.25% concentration, were included as compounds solvent control. Forty-eight hours later, cells were fixed with 50% (m/v) trichloroacetic acid (Merck Millipore, Darmstadt, Germany), washed with distilled water and stained with SRB for 30 min at room temperature. […]

[7] = Photophysical studies (absorption and emission in DMSO); format: physicochemical; settings: for λmax: absorption; for λem: emission; for ΦF: fluorescence quantum yield, by comparison with fluorescein (φf = 90%); for log ε: molar absorption coefficient
Experimental: The absorption spectra in dimethyl sulfoxide solutions were obtained on a Shimadzu UV-2501 PC spectrophotometer (1 cm path length quartz cell) and the emission spectra were recorded on a JASCO spectrofluorometer. Molar absorption coefficients were determined using 4 measurements in the concentration range 10^−3–10^−6 mol.L^−1. Fluorescence quantum yields were determined by comparison with fluorescein in 0.1 M NaOH water solution as a fluorescence standard (φf = 90%).

Row | SMILES | GI50 (A375-C5 (melanoma)) | GI50 [3] | GI50 [4] | GI50 [6] | Stokes’ Shift [7] | λmax [7] | λem [7] | ΦF [7] | log ε [7] | GI50 [1] | GI50 [2] | Selectivity Index A375-C5 (A375-C5 (melanoma)) | Selectivity Index MCF-7 [3] | Selectivity Index NCI-H460 [4] | GI50 [5]
1 | CCCOc1ccc(NCCN(CC)CC)c2c(=O)c3ccccc3sc12 [Compound 4] | – | – | – | – | – | – | – | – | – | 1.9 µM | 1.9 µM | – | – | – | –
2 | CCCOc1ccc2ncnc3c2c1Sc1ccccc1-3 [Compound 12, 6-Propoxythiochromeno[4,3,2-de]quinazoline] | 38.8 ± 5.93 µM | 33.8 ± 1.61 µM | 31.2 ± 1.53 µM | – | 89 nm | 394 nm | 483 nm | 50.7% | 3.72 | – | – | 1.01 | 1.16 | 1.26 | 39.28 ± 0.25 µM
3 | CCCOc1ccc2nc(NCc3ccccc3Cl)nc3c2c1Sc1ccccc1-3 [Compound 13, N-(2-Chlorobenzyl)-6-propoxythiochromeno[4,3,2-de]quinazolin-2-amine] | 22.9 ± 3.75 µM | 18.9 ± 1.42 µM | 17 ± 3.12 µM | – | 91 nm | 457 nm | 548 nm | 31.3% | 3.72 | – | – | 5.59 | 6.79 | 7.54 | 128 ± 1.56 µM

Continued, in another order:

Row | GI50 (A375-C5 (melanoma)) | GI50 [3] | GI50 [4] | GI50 [6] | Stokes’ Shift [7] | λmax [7] | λem [7] | ΦF [7] | log ε [7] | SMILES | GI50 [1] | GI50 [2] | Selectivity Index A375-C5 (A375-C5 (melanoma)) | Selectivity Index MCF-7 [3] | Selectivity Index NCI-H460 [4] | GI50 [5]
4 | 6.48 ± 0.88 µM | 6.39 ± 0.49 µM | 5.66 ± 0.89 µM | 5 to 7 µM | 92 nm | 456 nm | 548 nm | 29.0% | 3.67 | CCCOc1ccc2nc(N)nc3c2c1Sc1ccccc1-3 [Compound 11, 6-Propoxythiochromeno[4,3,2-de]quinazolin-2-amine] | – | – | 4.13 | 4.19 | 4.73 | 26.8 ± 1.2 µM
5 | 8.02 ± 3.59 µM | 9.04 ± 0.89 µM | 10.6 ± 0.31 µM | 8 to 11 µM | 80 nm | 480 nm | 560 nm | <0.1% | 4.00 | CCCOc1ccc2c3c(n/c(=N/c4ccccc4C)n2-c2ccccc2C)-c2ccccc2Sc13 [Compound 14, (E)-6-Propoxy-N,3-di-o-tolylthiochromeno[4,3,2-de]quinazolin-2(3H)-imine] | – | – | – | – | – | > 150 µM
6 | 0.016 ± 0.005 µM | 0.018 ± 0.003 µM | 0.024 ± 0.006 µM | – | – | – | – | – | – | COc1cccc2c1C(=O)c1c(O)c3c(c(O)c1C2=O)C[C@@](O)(C(=O)CO)C[C@@H]3O[C@H]1C[C@H](N)[C@H](O)[C@H](C)O1 [Doxorubicin, reference compound] | – | – | 3.38 | 3.00 | 2.25 | 0.054 ± 0.005 µM
